According to ChEMBL document CHEMBL3396975, “Structural development of stapled short helical peptides as vitamin D receptor (VDR)-coactivator interaction inhibitors” (Bioorg Med Chem, 2015):
pIC50: −log10 of the molar value. Starred links: 1 amine or outer side, 2 acyl side, 3 side chain; linkers in the order of their positions; H or OH if unused. Positions of bridges follow the written chain, without caps; N, C: chain ends. Non-standard residues stand in square brackets, D forms with d. Residues, ends and D or L forms follow the SMILES beside them. *: point of attachment. X2 = O=C(C(CO)(CO)N[*:1])[*:2]; X1 = OC(C[*:1])C(O)C[*:2]; hSer = N[C@@H](CCO)C(=O)O; X3 = C(CC[*:2])C[*:1]; Aib = CC(C)(N)C(=O)O; Allyl = C=CC*

Target: T1, Vitamin D3 receptor (Homo sapiens, UniProt P11473)
T1 sequence (P11473 whole entry): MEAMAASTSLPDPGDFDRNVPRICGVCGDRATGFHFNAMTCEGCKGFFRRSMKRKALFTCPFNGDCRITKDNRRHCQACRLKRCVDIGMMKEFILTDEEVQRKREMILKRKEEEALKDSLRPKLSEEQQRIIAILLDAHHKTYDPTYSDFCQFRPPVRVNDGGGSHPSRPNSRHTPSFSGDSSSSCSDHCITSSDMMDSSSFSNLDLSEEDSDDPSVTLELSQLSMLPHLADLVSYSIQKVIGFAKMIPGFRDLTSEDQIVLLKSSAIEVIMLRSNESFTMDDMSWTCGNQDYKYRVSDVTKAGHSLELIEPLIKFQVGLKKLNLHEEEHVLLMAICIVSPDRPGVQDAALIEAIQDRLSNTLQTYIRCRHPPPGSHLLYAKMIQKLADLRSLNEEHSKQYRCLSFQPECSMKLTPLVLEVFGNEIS
Assay: Inhibition of human VDR-cofactor interaction by EnBio receptor cofactor assay system

Row | pIC50 | Structure (SMILES)
1 | 3.30 | C=CCOCC[C@H](NC(=O)[C@H](CC(C)C)NC(=O)[C@H](CC(C)C)NC(=O)C(C)(C)NC(=O)[C@H](CCOCC=C)NC(=O)[C@H](CC(C)C)NC(=O)[C@@H](N)CC(C)C)C(=O)O (H-LL[hSer](Allyl)[Aib]LL[hSer](Allyl)-OH)
2 | 4.70 | CC(=O)N[C@@H](CC(C)C)C(=O)N[C@@H](CC(C)C)C(=O)N[C@H]1CCOCCCCOCC[C@@H](C(N)=O)NC(=O)[C@H](CC(C)C)NC(=O)[C@H](CC(C)C)NC(=O)C(CO)(CO)NC1=O (Ac-LL[hSer][X2]LL[hSer]-NH2; linker 3-7 via X3)
3 | 4.17 | CC(=O)N[C@@H](CC(C)C)C(=O)N[C@@H](CC(C)C)C(=O)N[C@H]1CCOCC(O)C(O)COCC[C@@H](C(N)=O)NC(=O)[C@H](CC(C)C)NC(=O)[C@H](CC(C)C)NC(=O)C(C)(C)NC1=O (stereo partly drawn) (Ac-LL[hSer][Aib]LL[hSer]-NH2; linker 3-7 via X1)
